Where “and” joins values, the source holds several entries; their conditions need not be identical. Identical values can stand only once.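 Interpolation was linear, between the two tested concentrations surrounding the appropriate level; five concentrations were tested over 48 hours in 96-well plates. At the GI50, growth is halved. TGI marks complete inhibition of growth.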

The first assay concerns SR leukemia. Put plainly: NCI anticancer screen, dose series, 48 h.
For the compound `Nc1cc(N)c2nc(-c3ccccc3)c(Oc3ccc(F)cc3)nc2c1`, the GI50 is 8.15 µM and the TGI is over 100 µM.
Take `CN1CCCN(CCNc2nccc(-c3c(-c4cccc(O)c4)nc4sccn34)n2)S1(=O)=O`: the GI50 was 4.57 µM and 2.85 µM; the TGI was 35.2 µM and 27.8 µM.
For `CCOC(=O)c1c(NC(=O)c2ccc(C(C)C)cc2)sc2c(CN(C)C)c(O)ccc12`, the GI50 was 2.09 µM and the TGI came out at 6.44 µM.
The like results for `COc1ccc(C(=O)N2c3ccccc3Sc3ccccc32)c(F)c1` were, in that order, 0.38 µM and over 100 µM.
As for `CC(O)CNC1=CC(=O)C(=O)c2ccccc21` (stereo not drawn), the TGI was over 100 µM.
On to `CC1(C)N=C(N)N=C(N)N1c1ccc(CCc2ccccc2)c(Cl)c1`, for which the GI50 was 0.0562 µM and the TGI worked out at 18.7 µM.
The like results for `Cc1ccc(C(=O)Nc2ccc(CN3CCN(C)CC3)c(C(F)(F)F)c2)cc1C#Cc1cnc(N)c2ccc(F)cc12` were, in that order, 0.262 µM and 1.3 µM.
As to `CC1(C)CCC(C)(C)c2cc(C(=O)Nc3ccc(C(=O)O)cc3)ccc21`, the TGI was over 81.9 µM.
Still for that read-out and setting: the same measure for `CC1=C(C(=O)NC2CCCCC2)CC(C(=O)NC2CCCCC2)=C(C)N1`: over 100 µM.

In another assay the test system is UO-31 renal. Put plainly: NCI anticancer screen, dose series, 48 h.
Regarding `COc1ccc(Cl)cc1Nc1nc(C(F)(F)F)ccc1C(=O)NN`, the GI50 is 3.97 µM and the TGI was over 76.7 µM.
Turning to `CC(C)c1ccc2nc3ccc(C(=O)NCCN(C)C)cn3c(=O)c2c1`, the TGI amounted to 29.5 µM.
With `CNC(=O)Nc1ccc(-c2nc(N3CCOCC3)nc3c2cnn3C2CCOCC2)cc1`, the GI50 is 0.0435 µM and the TGI is 0.544 µM.
As for `NCCCCNCCCNC(=O)CNC(=O)CC(O)C(N)CCCC(NC(=O)C(CN)NC(=O)C(O)CNC(=O)CC(N)c1ccc(O)cc1)C(=O)O` (stereo not drawn), the TGI is over 10 µM.
For `N/C(=N\OC(=O)c1ccccc1)C(C(=O)NOC(=O)c1ccccc1)C1CCCCC1` (stereo not drawn), the GI50 is 2.01 µM and the TGI was determined as 3.96 µM.
Consider `CCOc1ccc(N=Nc2ccc3cc(/C(C)=N/NC(=O)/C(C#N)=C\c4ccc(N(CCC#N)CCC#N)cc4)c(=O)oc3c2)cc1`, for which the TGI was over 10 µM.
Regarding `O=C(O)c1cc[c]([Hg][S]c2ncnc3nc[nH]c23)cc1`, the GI50 was 4.79 µM and the TGI was determined as 17 µM.
The like results for `O=C(Nc1ccc(OC(F)(F)F)cc1)c1sccc1NCc1ccnc2ccccc12` were, in that order, 2.34 µM and 26.1 µM.
As for `CCN(CC)c1ccc(NC(=S)NN(C)C)cc1`, the TGI is over 10 µM.
As for `Nc1cc(N)c2nc(-c3ccccc3)c(Oc3ccc(F)cc3)nc2c1`, the GI50 is 29.6 µM and the TGI was over 100 µM.
Take `CN1CCCN(CCNc2nccc(-c3c(-c4cccc(O)c4)nc4sccn34)n2)S1(=O)=O`: the GI50 is 5.2 µM and 6.46 µM; the TGI is 39 µM and > 87.2 µM.
Take `CCOC(=O)c1c(NC(=O)c2ccc(C(C)C)cc2)sc2c(CN(C)C)c(O)ccc12`: the GI50 is 1.46 µM and the TGI stood at 2.82 µM.
The like results for `COc1ccc(C(=O)N2c3ccccc3Sc3ccccc32)c(F)c1` were, in that order, 3.78 µM and over 100 µM.
With `CC(O)CNC1=CC(=O)C(=O)c2ccccc21` (stereo not drawn), the TGI came out at 34 µM.
On to `CC1(C)N=C(N)N=C(N)N1c1ccc(CCc2ccccc2)c(Cl)c1`, for which the GI50 is 8.12 µM and the TGI was over 100 µM.
The like results for `Cc1ccc(C(=O)Nc2ccc(CN3CCN(C)CC3)c(C(F)(F)F)c2)cc1C#Cc1cnc(N)c2ccc(F)cc12` were, in that order, 0.121 µM and 0.748 µM.
The compound `CC1(C)CCC(C)(C)c2cc(C(=O)Nc3ccc(C(=O)O)cc3)ccc21` had a TGI of 30.7 µM.
`CC1=C(C(=O)NC2CCCCC2)CC(C(=O)NC2CCCCC2)=C(C)N1` showed a TGI of over 100 µM.

A further assay concerns SN12C renal. Put plainly: NCI anticancer screen, dose series, 48 h.
For `COc1ccc(Cl)cc1Nc1nc(C(F)(F)F)ccc1C(=O)NN`, the GI50 is 11.4 µM and the TGI was over 100 µM.
`CC(C)c1ccc2nc3ccc(C(=O)NCCN(C)C)cn3c(=O)c2c1` had a TGI of 35.9 µM.
For `CNC(=O)Nc1ccc(-c2nc(N3CCOCC3)nc3c2cnn3C2CCOCC2)cc1`, the GI50 was 0.213 µM and the TGI was over 100 µM.
`NCCCCNCCCNC(=O)CNC(=O)CC(O)C(N)CCCC(NC(=O)C(CN)NC(=O)C(O)CNC(=O)CC(N)c1ccc(O)cc1)C(=O)O` (stereo not drawn) displayed a TGI of over 10 µM.
For `N/C(=N\OC(=O)c1ccccc1)C(C(=O)NOC(=O)c1ccccc1)C1CCCCC1` (stereo not drawn), the GI50 is 13.4 µM and the TGI was determined as 69.4 µM.
The compound `CCOc1ccc(N=Nc2ccc3cc(/C(C)=N/NC(=O)/C(C#N)=C\c4ccc(N(CCC#N)CCC#N)cc4)c(=O)oc3c2)cc1` came in with a TGI of over 10 µM.
For the compound `O=C(O)c1cc[c]([Hg][S]c2ncnc3nc[nH]c23)cc1`, the GI50 was 17.5 µM and the TGI turned out to be 38.6 µM.
For `O=C(Nc1ccc(OC(F)(F)F)cc1)c1sccc1NCc1ccnc2ccccc12`, the GI50 was 2.97 µM and the TGI was over 100 µM.
`CCN(CC)c1ccc(NC(=S)NN(C)C)cc1` came in with a TGI of over 10 µM.
Regarding `Nc1cc(N)c2nc(-c3ccccc3)c(Oc3ccc(F)cc3)nc2c1`, the GI50 was 19.3 µM and the TGI was 52.7 µM.
As to `CN1CCCN(CCNc2nccc(-c3c(-c4cccc(O)c4)nc4sccn34)n2)S1(=O)=O`, the GI50 is 8.55 µM and 6.23 µM; the TGI is 75 µM and > 100 µM.
For the compound `CCOC(=O)c1c(NC(=O)c2ccc(C(C)C)cc2)sc2c(CN(C)C)c(O)ccc12`, the GI50 was 4.53 µM and the TGI turned out to be 17.9 µM.
The like results for `COc1ccc(C(=O)N2c3ccccc3Sc3ccccc32)c(F)c1` were, in that order, 1.94 µM and over 100 µM.
With `CC(O)CNC1=CC(=O)C(=O)c2ccccc21` (stereo not drawn), the TGI was 34.9 µM.
For `CC1(C)N=C(N)N=C(N)N1c1ccc(CCc2ccccc2)c(Cl)c1`, the GI50 was 0.0883 µM and the TGI worked out at 13 µM.
The like results for `Cc1ccc(C(=O)Nc2ccc(CN3CCN(C)CC3)c(C(F)(F)F)c2)cc1C#Cc1cnc(N)c2ccc(F)cc12` were, in that order, 0.0793 µM and 0.73 µM.
On to `CC1(C)CCC(C)(C)c2cc(C(=O)Nc3ccc(C(=O)O)cc3)ccc21`, for which the TGI is over 100 µM.
On the same count and under the same terms, with `CC1=C(C(=O)NC2CCCCC2)CC(C(=O)NC2CCCCC2)=C(C)N1` the figure was over 100 µM.

The values are drawn from PubChem BioAssay (NCI).
